{"source": "patent US8143226B2", "about": "“Tyrosine kinase receptor antagonists and methods of treatment for breast cancer” (The Regents of the University of California, priority 2005, dated 2012)", "key": {"rodent HER2/neu receptor": {"target": "T1, rodent HER2/neu receptor (Rattus norvegicus, UniProt P06494)", "T1 construct": "made in house; host or cells: MCNeuA mouse mammary carcinoma cells (MMTV/neu transgenic), partially purified by wheat germ agglutinin chromatography", "T1 sequence (P06494 23-1257)": "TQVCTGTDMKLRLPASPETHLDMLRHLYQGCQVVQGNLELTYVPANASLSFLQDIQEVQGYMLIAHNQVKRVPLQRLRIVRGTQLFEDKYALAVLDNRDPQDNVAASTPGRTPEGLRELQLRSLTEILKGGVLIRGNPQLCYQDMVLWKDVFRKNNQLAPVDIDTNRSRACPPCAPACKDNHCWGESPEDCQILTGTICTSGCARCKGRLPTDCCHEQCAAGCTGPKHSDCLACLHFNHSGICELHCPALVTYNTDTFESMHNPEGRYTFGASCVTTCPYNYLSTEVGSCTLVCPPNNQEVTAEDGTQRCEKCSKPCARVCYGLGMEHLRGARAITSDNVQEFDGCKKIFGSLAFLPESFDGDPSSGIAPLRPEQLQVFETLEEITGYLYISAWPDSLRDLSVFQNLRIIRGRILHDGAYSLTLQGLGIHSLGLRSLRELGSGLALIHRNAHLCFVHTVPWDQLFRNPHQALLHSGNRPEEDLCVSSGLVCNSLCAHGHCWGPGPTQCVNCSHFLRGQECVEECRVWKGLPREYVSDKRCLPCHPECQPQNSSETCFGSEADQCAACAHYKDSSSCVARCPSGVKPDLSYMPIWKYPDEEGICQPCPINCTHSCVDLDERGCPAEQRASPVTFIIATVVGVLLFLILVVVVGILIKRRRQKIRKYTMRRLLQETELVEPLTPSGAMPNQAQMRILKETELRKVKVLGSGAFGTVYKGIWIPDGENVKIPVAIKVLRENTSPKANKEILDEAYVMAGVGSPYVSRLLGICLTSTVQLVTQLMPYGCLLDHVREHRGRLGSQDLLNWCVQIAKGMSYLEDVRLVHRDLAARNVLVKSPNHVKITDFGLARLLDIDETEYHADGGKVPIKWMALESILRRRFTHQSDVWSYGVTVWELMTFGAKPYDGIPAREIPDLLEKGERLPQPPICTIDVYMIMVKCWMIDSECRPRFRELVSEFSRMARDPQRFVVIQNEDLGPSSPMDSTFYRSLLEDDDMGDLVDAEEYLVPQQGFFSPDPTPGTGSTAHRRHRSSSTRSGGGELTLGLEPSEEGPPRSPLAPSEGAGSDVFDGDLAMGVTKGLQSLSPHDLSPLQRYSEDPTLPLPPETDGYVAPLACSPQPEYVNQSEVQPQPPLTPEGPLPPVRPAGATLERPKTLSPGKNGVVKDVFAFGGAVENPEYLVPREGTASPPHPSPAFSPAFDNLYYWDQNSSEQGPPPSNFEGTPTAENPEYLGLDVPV", "experiment": "Autophosphorylation of isolated HER2/neu (western blot)", "format": "biochemical", "settings": "preincubation 20 minutes prior to 10 μM ATP", "description": "IGF-1 and HER2/neu receptors were partially purified by WGA chromatography of cells overexpressing the protein of interest. To isolate IGF-1R, CHO cells transfected with and overexpressing the human IGF-1R (CHOIGF-1R) were plated in T-150 flasks and grown in DMEM supplemented with 10% fetal calf serum (FCS) until 80% confluent. Cells were harvested in the basal state and solubilized in 50 mM HEPES, 10% glycerol, 1% Triton X-100, 150 mM NaCl, 5 μM EGTA, 0.24 mg/ml aminoethyl-benzensulfonyl fluoride (AEBSF), 10 μg/ml aprotinin, 25 mM benzamidine, 10 μg soybean trypsin inhibitor, and 5 μg/ml leuptin for one hour at 4° C. Samples were centrifuged for 60 minutes at 100,000 g and solubilized extract collected. Rodent HER2/neu receptors were collected from MCNeuA cells crown under identical conditions and processed similarly. […] WGA fractions containing RTK of interest were determined by SDS page and a western blot that employed antibodies against either the IGF-1R or HER2/neu as appropriate.\nAutophosphorylation of HER2/neu in WGA preparations enriched in this RTK were determined in the absence of ligand. […] Following transfer to nitrocellulose membrane, receptor autophosphorylation was determined by a western blot that employed a phosphospecific antibody against the pNeu (Tyr1248) diluted 1:1000 in Superblock. […] Values were determined by scanning densitometry."}, "MCF-7/neo cells": {"test_system": "MCF-7/neo cells", "experiment": "Growth of MCF-7/neo cells with RTK inhibitors, 6 days (CyQuant)", "format": "cell-based", "settings": "Homo sapiens, MCF7, 144 h, read-out: one half maximal effect on growth", "description": "MCF-7/neo or MCF-7/HER2-18 cells were plated in 96 well plates (4×10^3 cells/well) in 100 μl/well of DMEM-10 medium. […] Media with inhibitors was refreshed on day 3 and the cultures were harvested on day 6. The plates were inverted onto paper towels with gentle blotting to remove growth medium without disrupting adherent cells. Each plate was kept at −80° C. until assayed for cell growth. After thawing the plate at room temperature, 200 μl of CyQuant GR solution was added to each well and the plates were incubated in the dark for five minutes. Fluorescence was measured with a SpectraMax Gemini XS fluorescence microplate reader (Molecular Devices) with 480-nm excitation and 520-nm emission."}, "IGF-1R [1]": {"target": "T2, IGF-1R (Homo sapiens, UniProt P08069)", "T2 sequence (P08069 31-1367)": "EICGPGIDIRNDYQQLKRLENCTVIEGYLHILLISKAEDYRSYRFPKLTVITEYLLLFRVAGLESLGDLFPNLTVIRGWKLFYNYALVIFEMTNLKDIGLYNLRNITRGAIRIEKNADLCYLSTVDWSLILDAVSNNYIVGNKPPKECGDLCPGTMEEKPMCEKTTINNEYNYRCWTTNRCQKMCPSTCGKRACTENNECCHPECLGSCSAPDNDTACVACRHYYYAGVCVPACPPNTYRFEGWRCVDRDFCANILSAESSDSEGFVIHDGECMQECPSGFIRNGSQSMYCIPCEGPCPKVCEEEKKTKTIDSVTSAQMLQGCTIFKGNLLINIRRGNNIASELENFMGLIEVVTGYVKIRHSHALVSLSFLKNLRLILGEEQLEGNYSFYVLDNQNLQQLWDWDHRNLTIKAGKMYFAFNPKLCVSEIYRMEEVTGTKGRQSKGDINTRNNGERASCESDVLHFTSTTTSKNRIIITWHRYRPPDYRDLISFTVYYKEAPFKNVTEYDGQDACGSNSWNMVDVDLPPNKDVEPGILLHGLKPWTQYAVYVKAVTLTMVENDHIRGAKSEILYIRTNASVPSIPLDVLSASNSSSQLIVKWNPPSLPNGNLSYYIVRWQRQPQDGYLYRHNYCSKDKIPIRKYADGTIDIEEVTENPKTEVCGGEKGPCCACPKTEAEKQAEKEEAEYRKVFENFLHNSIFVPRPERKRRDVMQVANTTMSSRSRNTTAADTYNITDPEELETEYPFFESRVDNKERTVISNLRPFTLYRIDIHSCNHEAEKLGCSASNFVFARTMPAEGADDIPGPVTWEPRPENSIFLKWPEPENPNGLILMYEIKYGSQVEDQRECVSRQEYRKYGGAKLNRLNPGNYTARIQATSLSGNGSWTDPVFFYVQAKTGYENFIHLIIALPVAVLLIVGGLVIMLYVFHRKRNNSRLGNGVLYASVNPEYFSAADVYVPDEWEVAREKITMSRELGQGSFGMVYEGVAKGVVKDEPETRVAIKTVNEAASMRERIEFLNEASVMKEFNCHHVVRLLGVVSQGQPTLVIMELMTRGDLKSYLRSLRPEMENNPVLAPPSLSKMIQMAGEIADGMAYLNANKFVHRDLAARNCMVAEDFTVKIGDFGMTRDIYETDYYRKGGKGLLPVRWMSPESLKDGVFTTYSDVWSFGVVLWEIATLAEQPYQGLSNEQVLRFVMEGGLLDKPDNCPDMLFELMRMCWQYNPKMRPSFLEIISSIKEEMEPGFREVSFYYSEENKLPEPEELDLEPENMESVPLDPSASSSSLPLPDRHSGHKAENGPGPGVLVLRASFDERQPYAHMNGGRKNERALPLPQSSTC", "experiment": "IGF-1R phosphorylation ELISA in MCF-7/HER2-18 cells", "format": "cell-based", "set-up": "endogenous in cells; host or cells: MCF-7/HER2-18", "settings": "3 nM IGF-I 10 min"}, "HER2/neu": {"target": "T3, HER2/neu (Rattus norvegicus, UniProt P06494)", "T3 construct": "expressed in transfected cells; host or cells: MCNeuA mouse mammary carcinoma cells (MMTV/neu transgene), in culture or grown as tumours in neuTg mice", "T3 sequence (P06494 23-1257)": "as the sequence (P06494 23-1257) above", "experiment": "HER2/neu autophosphorylation in MCNeuA cells (western blot)", "format": "cell-based, mouse", "settings": "read-out: IC50, ligand-independent tyrosine phosphorylation of HER2/neu", "description": "HER2/neu receptor autophosphorylation was determined in serum-starved MCNeuA or SKBR3 cells, which were collected in the basal state, due to the ligand-independent nature of HER2/neu activation. Following a one-hour incubation in serum-free media, soluble extracts of cells were prepared as above. HER2/neu autophosphorylation was determined by a western blot that employed a phosphospecific antibody, pNeu(Tyr1248) as described above."}, "Akt": {"test_system": "Akt", "experiment": "IGF-stimulated Akt phosphorylation in neuroblastoma cells", "format": "cell-based, human", "settings": "SH-SY5Y and SHEP cells", "description": "(§1) Detection of phospho-Akt and phospho-Erk. […] Then, some cultures were treated with 10 nM IGF-I for 15 min. Cultures were immediately placed on ice, the medium was removed, and the cells were lysed in modified RIPA buffer (20 mM Tris, 150 mM NaCl, 1 mM EDTA, 1 mM EGTA, 1% Triton X-100, 0.1% sodium dodecyl sulfate, and 1% deoxycholate). Fifty μg of protein from each sample were separated via SDS-PAGE and transfened to nitrocellulose. Phospho- and total-Akt and -Erk were detected by immunoblotting."}, "IGF-1R [2]": {"target": "T2, IGF-1R", "experiment": "Tyrosine kinase activity of partially purified IGF-1R on poly Glu4:Tyr1 (ELISA)", "format": "biochemical", "set-up": "made in house; host or cells: CHO cells (CHOIGF-1R / CHO-IGFR), partially purified by wheat germ agglutinin chromatography", "description": "IGF-1 and HER2/neu receptors were partially purified by WGA chromatography of cells overexpressing the protein of interest. To isolate IGF-1R, CHO cells transfected with and overexpressing the human IGF-1R (CHOIGF-1R) were plated in T-150 flasks and grown in DMEM supplemented with 10% fetal calf serum (FCS) until 80% confluent. Cells were harvested in the basal state and solubilized in 50 mM HEPES, 10% glycerol, 1% Triton X-100, 150 mM NaCl, 5 μM EGTA, 0.24 mg/ml aminoethyl-benzensulfonyl fluoride (AEBSF), 10 μg/ml aprotinin, 25 mM benzamidine, 10 μg soybean trypsin inhibitor, and 5 μg/ml leuptin for one hour at 4° C. Samples were centrifuged for 60 minutes at 100,000 g and solubilized extract collected. Rodent HER2/neu receptors were collected from MCNeuA cells crown under identical conditions and processed similarly. Lysates from both cell lines were loaded onto a 1 ml wheat germ agglutin (WGA) column (Pharmacia, Piscataway, N.J.), washed with WGA buffer (50 mM HEPES pH 7.6, 150 mM NaCl, 0.1% Triton X-100, 1 mg/ml bacitracin, and 1 mM PMSF). Receptors were then eluted with WGA buffer supplemented with 0.3 N N-Acetyl-D-glucosamine. WGA fractions containing RTK of interest were determined by SDS page and a western blot that employed antibodies against either the IGF-1R or HER2/neu as appropriate. […]"}, "PDGF receptor": {"test_system": "PDGF receptor", "settings": "Domin et al. 1994; cited from earlier work"}, "EGF receptor": {"target": "EGF receptor (Homo sapiens, UniProt P00533)", "sequence (P00533 25-1210)": "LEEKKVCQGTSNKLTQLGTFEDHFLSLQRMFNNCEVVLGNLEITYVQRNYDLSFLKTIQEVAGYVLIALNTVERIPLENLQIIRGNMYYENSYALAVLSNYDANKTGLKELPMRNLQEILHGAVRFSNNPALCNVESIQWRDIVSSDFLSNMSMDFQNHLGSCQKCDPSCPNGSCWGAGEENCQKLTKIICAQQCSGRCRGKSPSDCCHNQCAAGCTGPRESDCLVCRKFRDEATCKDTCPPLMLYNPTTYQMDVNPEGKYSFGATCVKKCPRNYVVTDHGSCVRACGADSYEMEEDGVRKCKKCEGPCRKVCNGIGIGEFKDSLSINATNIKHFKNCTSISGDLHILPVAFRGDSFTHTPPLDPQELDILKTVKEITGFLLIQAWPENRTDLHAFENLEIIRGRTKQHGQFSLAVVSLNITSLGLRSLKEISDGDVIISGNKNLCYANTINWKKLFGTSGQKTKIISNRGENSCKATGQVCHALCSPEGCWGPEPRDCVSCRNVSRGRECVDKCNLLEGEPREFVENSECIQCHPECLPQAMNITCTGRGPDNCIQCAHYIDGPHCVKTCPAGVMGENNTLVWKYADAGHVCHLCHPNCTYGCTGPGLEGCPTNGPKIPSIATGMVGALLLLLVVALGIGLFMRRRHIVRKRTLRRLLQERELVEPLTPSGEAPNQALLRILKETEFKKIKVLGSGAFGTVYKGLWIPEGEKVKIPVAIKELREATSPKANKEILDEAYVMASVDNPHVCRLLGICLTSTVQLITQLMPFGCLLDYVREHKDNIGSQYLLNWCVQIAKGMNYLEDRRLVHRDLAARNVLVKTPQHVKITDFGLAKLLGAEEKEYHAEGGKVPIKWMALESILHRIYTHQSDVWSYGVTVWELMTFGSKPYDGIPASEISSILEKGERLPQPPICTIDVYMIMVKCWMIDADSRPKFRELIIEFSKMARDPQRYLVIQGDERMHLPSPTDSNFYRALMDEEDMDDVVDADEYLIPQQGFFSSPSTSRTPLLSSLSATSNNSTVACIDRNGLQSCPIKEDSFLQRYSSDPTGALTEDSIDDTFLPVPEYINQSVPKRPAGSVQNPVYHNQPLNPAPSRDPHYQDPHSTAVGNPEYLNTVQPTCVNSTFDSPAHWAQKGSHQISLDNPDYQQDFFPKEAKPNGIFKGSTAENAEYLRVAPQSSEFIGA", "settings": "Seufferlein et al. 2002; cited from earlier work"}, "ERK 1 and 2": {"test_system": "ERK 1 and 2", "experiment": "IGF-stimulated ERK phosphorylation in neuroblastoma cells", "format": "cell-based, human", "settings": "SH-SY5Y cells, NDGA 1 h, 10 nM IGF-I 15 min", "description": "as §1"}}}
{"smiles": "CC(Cc1ccc(O)c(O)c1)C(C)Cc1ccc(O)c(O)c1", "note": "(stereo not shown) [NDGA, nordihydroguaiaretic acid]", "values": [{"measurement": "ATP-induced increase in ligand-independent HER2/neu autophosphorylation", "setting": "rodent HER2/neu receptor", "result": "abolished"}, {"measurement": "IC50", "setting": "MCF-7/neo cells", "result": 12.5, "unit": "µM"}, {"measurement": "IGF-1 stimulated phosphorylation of the IGF-1R", "setting": "IGF-1R [1]", "result": "strongly inhibited"}, {"measurement": "IC50", "setting": "HER2/neu", "result": "15 ± 4", "unit": "µM"}, {"measurement": "IGF-stimulated Akt phosphorylation", "setting": "Akt", "result": "dose-dependent inhibition"}, {"measurement": "lowest concentration reducing IGF-1 stimulated tyrosine phosphorylation of poly Glu4:Tyr1", "setting": "IGF-1R [2]; NDGA 20 minutes prior to 10 nM IGF-1", "result": 0.3, "unit": "µM"}, {"measurement": "concentration inhibiting IGF-1-stimulated tyrosine kinase activity of isolated IGF-1R", "setting": "IGF-1R [2]; summary statement", "result": "≤ 10", "unit": "µM"}, {"measurement": "activation of the PDGF receptor", "setting": "PDGF receptor", "result": "inhibits"}, {"measurement": "EGF receptor phosphorylation", "setting": "EGF receptor", "result": "no affect"}, {"measurement": "IGF-stimulated phosphorylation of ERK", "setting": "ERK 1 and 2", "result": "dose-dependent inhibitory effect"}]}
